Molecules are shown by their SMILES.

What is called EC50 is the concentration at which the effect is half-maximal. Read a high EC50 as weaker potency. The Kd is the concentration at which binding is half-saturated. For orientation: IC50 means the concentration that gives 50% inhibition.

One assay concerns UM-UC-3. In words: Further cell proliferation assay, X-Celligence RTCA, UM-UC-3. It is filed as cell-based. Conditions: Homo sapiens, UMUC3. Here is the method: (§1) Compound no. 1 (Name 287) was tested in further cell proliferation assays using different cancer cell lines. Cell proliferation was determined using X-Celligence RTCA system (Roche). For real-time recording of CAL-29, VM-CUB1, SW480, SKBR3, HT-1376, PC-3M, A549, UM-UC-3, DU145 and 22RV1, between 2500 and 20000 cells/well (depending on the cell type) were seeded in 16 well E-plates (Roche). Cells were seeded in presence of DMSO or Compound no. 1 (Name 287) 24 h before seeding in E-plates. Cell indices were automatically recorded every 15 minutes. Relative velocities represent the change of the cell index over time. The ECso values of compound no.

Another assay concerns VM-CUB1. In words: Further cell proliferation assay, X-Celligence RTCA, VM-CUB1. The class given is cell-based. Conditions: Homo sapiens, VM-CUB-1. The procedure: as §1
In the next assay the test system is SKBR3. The assay can be described thus: Further cell proliferation assay, X-Celligence RTCA, SKBR3. The class given is cell-based. Conditions: Homo sapiens, SK-BR-3. Here is the method: as §1
The subject of the next assay is SW480. In words: Further cell proliferation assay, X-Celligence RTCA, SW480. It is filed as cell-based. The settings on record: Homo sapiens. Here is the method: as §1
The subject of a further assay is HT-1376. The assay can be described thus: Further cell proliferation assay, X-Celligence RTCA, HT-1376. The class given is cell-based. Conditions: Homo sapiens. Here is the method:
as §1

The next assay deals with PC-3M. In words: Further cell proliferation assay, X-Celligence RTCA, PC-3M. The class given is cell-based. Conditions: Homo sapiens, castration resistant prostate cancer cells. Here is the method:
as §1

Another assay relates to DU145. The assay can be described thus: Further cell proliferation assay, X-Celligence RTCA, DU145. It is filed as cell-based. Conditions: Homo sapiens, DU-145; DU145, castration resistant prostate cancer cells. Here is the method: as §1
In the next assay the test system is 22RV1. In words: Further cell proliferation assay, X-Celligence RTCA, 22RV1. The class given is cell-based. The settings on record: Homo sapiens; 22RV1, castration resistant prostate cancer cells. Here is the method:
as §1

The subject of another assay is CAL-29. In words: Further cell proliferation assay, X-Celligence RTCA, CAL-29. It is filed as cell-based. Here is the method: as §1
Another assay has as its system A549. The assay can be described thus: Further cell proliferation assay, X-Celligence RTCA, A549. It is filed as cell-based. Conditions: Homo sapiens. Here is the method:
as §1

Assay [1] addresses T1, KMT9 (Homo sapiens, UniProt Q9Y5N5).
T1 sequence (Q9Y5N5 1-214): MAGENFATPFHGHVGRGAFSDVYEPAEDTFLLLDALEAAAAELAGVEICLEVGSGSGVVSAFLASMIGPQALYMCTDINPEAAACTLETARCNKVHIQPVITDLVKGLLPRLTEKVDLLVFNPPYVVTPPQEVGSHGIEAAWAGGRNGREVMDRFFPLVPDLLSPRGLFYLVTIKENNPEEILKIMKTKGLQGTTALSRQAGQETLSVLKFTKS
T1 sequence (Q9UI30 1-120 isoform Q9UI30-2 partner): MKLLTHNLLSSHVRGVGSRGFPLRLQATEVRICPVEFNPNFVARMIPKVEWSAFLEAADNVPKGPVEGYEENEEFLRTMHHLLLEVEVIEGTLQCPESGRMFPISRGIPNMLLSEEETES
In words: Microscale thermophoresis (MST) KMT9 binding. Conditions: His-tag labelled KMT9 20 nM; read-out: MST (Kd). A digest of the protocol: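 Kd from microscale thermophoresis: compound series against 20 nM His-KMT9 labelled via RED-Tris-NTA, buffer 25 mM HEPES (pH 7.5)/100 mM NaCl/1 mM DTT/0.05% Tween, 40% MST power, 100% LED. Reported as classes: A ≤10 nM, B >10–100 nM, C >100–1000 nM, D >1000 nM.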

For assay [2], the target named is T1, KMT9. In words: KMT9 thermal shift assay (SyproOrange). The class given is binding. Conditions: 500 µM compound, 2 μM KMT9; read-out: Thermal shift (ΔTm). The method in brief:
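ΔTm versus DMSO-only control is reported in bins (>20 K, 15–20 K, 10–15 K, ≤10 K), using Tm from Boltzmann sigmoidal fits of SyproOrange melt curves. KMT9 with compound in pH 8.5 BTP buffer containing MgCl2 and DTT was preincubated at 25° C, then ramped 1° C per 15 s up to 95° C.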

For assay [3], the target named is T1, KMT9. The assay can be described thus: KMT9 methyltransferase inhibition assay, MTaseGlo luminescence (from entry 155). The class given is biochemical. Conditions: MTaseGlo procedure (entries from 155); 100 nM KMT9, 5 μM ETF1, 1 μM SAM; read-out: Inhibition (IC50). A digest of the protocol: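 KMT9 (100 nM final) pre-incubated with inhibitor for 15 min at room temperature, then reacted with 5 μM ETF1 and 1 μM SAM for 2 h at 30° C. at 2% DMSO final. MTaseGlo luminescence read after 60 min detection; IC50 reported in four potency bins.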

On to `CNc1ncnc2c1ccn2[C@@H]1C[C@H](CNCCCNCCc2cccc(Oc3ccccc3)c2)[C@@H](O)[C@H]1O` [Compound 287, (1R,2S,3R,5R)-3-(4-(methylamino)-7H-pyrrolo[2,3-d]pyrimidin-7-yl)-5-(((3-((3-phenoxyphenethyl)amino)propyl)amino)methyl) cyclopentane-1,2-diol], for which the EC50 in the assay on UM-UC-3 was 17 µM; with VM-CUB1 it was 6.17 µM; in the assay on SKBR3 it was 6.6 µM; in the assay on SW480, 9.12 µM; in the assay on HT-1376, 12.6 µM; with PC-3M, 15.8 µM. Besides, the EC50 with DU145 worked out at 19 µM; in the assay on 22RV1, 16.6 µM; with CAL-29 it was 6.45 µM; with A549 it was 12 µM.

As to `Nc1nc(Cl)nc2c1ccn2[C@@H]1C[C@H](c2cccc(OC(F)F)c2)[C@@H](O)[C@H]1O` [Compound 676, (1R,2S,3R,5R)-3-{4-amino-2-chloropyrrolo[2,3-d]pyrimidin-7-yl}-5-[3-(difluoromethoxy)phenyl]cyclopentane-1,2-diol], on KMT9 [1], the dissociation constant (Kd) lay in the range of 10 to 100 nM. The ΔTm at 500 µM on KMT9 [2] was ≤ 10 °C. In addition, the IC50 at KMT9 [3] was in the range of 1000 to 10000 nM.

For `COc1cc(OC)cc([C@H]2C[C@@H](n3cc(Br)c4c(N)nc(Cl)nc43)[C@H](O)[C@@H]2O)c1` [Compound 677, (1R,2S,3R,5R)-3-{4-amino-5-bromo-2-chloropyrrolo[2,3-d]pyrimidin-7-yl}-5-(3,5-dimethoxyphenyl)cyclopentane-1,2-diol], the Kd at KMT9 [1] lay within 10 to 100 nM. The ΔTm at 500 µM on KMT9 [2] lay within 10 to 15 °C. On KMT9 [3], the IC50 was 1000 to 10000 nM.

With `COc1cc(OC)cc([C@H]2C[C@@H](n3cc(-c4ccn(C)n4)c4c(N)nc(Cl)nc43)[C@H](O)[C@@H]2O)c1` [Compound 678, (1R,2S,3R,5R)-3-[4-amino-2-chloro-5-(1-methylpyrazol-3-yl)pyrrolo[2,3-d]pyrimidin-7-yl]-5-(3,5-dimethoxyphenyl)cyclopentane-1,2-diol], the Kd on KMT9 [1] lay within 100 to 1000 nM. Further, at KMT9 [2], the ΔTm at 500 µM was in the range of 10 to 15 °C. In addition, the half-maximal inhibitory concentration (IC50) on KMT9 [3] fell in the range of 1000 to 10000 nM.

As for `COc1cc(OC)cc([C@H]2C[C@@H](n3cc(-c4ccn(Cc5ccccc5)n4)c4c(N)nc(Cl)nc43)[C@H](O)[C@@H]2O)c1` [Compound 679, (1R,2S,3R,5R)-3-[4-amino-5-(1-benzylpyrazol-3-yl)-2-chloropyrrolo[2,3-d]pyrimidin-7-yl]-5-(3,5-dimethoxyphenyl)cyclopentane-1,2-diol], at KMT9 [1], the Kd fell in the range of 100 to 1000 nM. Also, the ΔTm at 500 µM at KMT9 [2] is ≤ 10 °C. The IC50 at KMT9 [3] lay within 1000 to 10000 nM.

Regarding `COc1cc([C@H]2C[C@@H](n3cc(Br)c4c(N)nc(Cl)nc43)[C@H](O)[C@@H]2O)ccn1` [Compound 680, (1R,2S,3R,5R)-3-(4-amino-5-bromo-2-chloro-7H-pyrrolo[2,3-d]pyrimidin-7-yl)-5-(2-methoxypyridin-4-yl)cyclopentane-1,2-diol], the Kd on KMT9 [1] lay in the range of 10 to 100 nM. In addition, the ΔTm at 500 µM at KMT9 [2] is 10 to 15 °C. Also, the IC50 at KMT9 [3] lay in the range of 100 to 1000 nM.

As to `Nc1cc(-c2cnsc2)cc([C@H]2C[C@@H](n3ccc4c(N)nc(Cl)nc43)[C@H](O)[C@@H]2O)c1` [Compound 681, (1R,2S,3R,5R)-3-(4-Amino-2-chloro-7H-pyrrolo[2,3-d]pyrimidin-7-yl)-5-(3-amino-5-(isothiazol-4-yl)phenyl)cyclopentane-1,2-diol], the Kd on KMT9 [1] lay in the range of 10 to 100 nM. Moreover, the ΔTm at 500 µM on KMT9 [2] lay within 10 to 15 °C. The 50% inhibitory concentration (IC50) on KMT9 [3] lay within 100 to 1000 nM.

In the case of `COc1ccc([C@H]2C[C@@H](n3ccc4c(N)nc(Cl)nc43)[C@H](O)[C@@H]2O)cc1` [Compound 682, (1R,2S,3R,5R)-3-{4-Amino-2-chloropyrrolo[2,3-d]pyrimidin-7-yl}-5-(4-methoxyphenyl)cyclopentane-1,2-diol], at KMT9 [1], the Kd was in the range of 10 to 100 nM. The ΔTm at 500 µM at KMT9 [2] fell in the range of 10 to 15 °C. Besides, the IC50 at KMT9 [3] was 100 to 1000 nM.

For the origin of these results see patent US20250188110A1, “SPECIFIC SMALL MOLECULE INHIBITORS THAT BLOCK KMT9 METHYLTRANSFERASE ACTIVITY AND FUNCTION” (ALBERT-LUDWIGS-UNIVERSITÄT FREIBURG, priority 2021, published 2025).
